What was measured:
[1] = system: Escherichia coli BL21-Star (DE3) with empty pET vector; assay: Complementation of cell growth on glufosinate, empty pET vector (control); assay type: cell-based; parameters: key: +++ = Heavy Lawn Growth; ++ = Light lawn growth; + = patchy lawn growth; −− = No Growth; conditions: 24 hrs @28 C, 20 uM IPTG
Description: A pET28a(+) expression plasmid containing PAT (v3) was constructed as a positive control. PAT (v3) was cloned as an NcoI-SacI fragment into corresponding restriction sites of pDAB779. Positive clones containing the PAT (v3) gene fragment were verified via restriction enzyme digestion. This construct was labeled as pDAB4434.
(§1) The plasmids, pDAB4434, pDAB4412, and an empty pET vector (control) were transformed into Escherichia coli BL21-Star (DE3) bacterial cells. Expression cultures were initiated with 10-200 freshly transformed colonies into 250 mL LB medium containing 50 μg/ml antibiotic and 75 μM IPTG (isopropyl-[…]). The cultures were grown at 28° C. for 24 hours at 180-200 rpm. Five microliters of the culture was inoculated onto a complex media control and minimal media containing incrementally increasing concentrations of glufosinate and 20 μM IPTG. The cultures were dispersed evenly over the plates and incubated at 28° C. for 24 hours.

[2] = system: Escherichia coli BL21-Star (DE3) expressing DSM-2 (v2); assay: Complementation of cell growth on glufosinate, pDAB4412 (DSM-2 v2); assay type: cell-based; parameters: bacterial growth on minimal media: key: −− = No Growth; +++ = Distinct Colony Growth; conditions: for bacterial growth on minimal media: 24 hrs @28 C, 20 uM IPTG
Procedure: as §1

[3] = system: Escherichia coli BL21-Star (DE3) with AtUbi10 promoter//DSM-2 (v2) (3778); assay: Plant promoter driven complementation on glufosinate, plasmid 3778; assay type: cell-based; parameters: bacterial growth on minimal media: key: ++++ = Heavy Lawn Growth; +++ = Lawn Growth; ++ = Lots of Distinct Colonies; + = Scattered Colony Growth; conditions: for bacterial growth on minimal media: 48 hrs @37 C
Procedure: Plasmid constructs in which the DSM-2 (v2) and PAT gene coding sequences were expressed, under either the viral promoters CsVMV or the plant promoter AtUbi10, were assayed for complementation on minimal media containing glufosinate. The plasmids 3778 (Rb7 MARv3//AtUbi10 promoter//DSM-2 (v2)//Atu Orf 1 3′UTR), 3779 (Rb7 MARv3//AtUbi10 promoter//PAT//Atu Orf 1 3′UTR), 3264 (CsVMV promoter//DSM-2//Atu Orf 24 3′UTR), 3037 (CsVMV promoter//PAT//Atu Orf 25/26 3′UTR), and 770 (control plasmid containing CsVMV promoter//GUS v3//Atu Orf 24 3′UTR) were transformed into Escherichia coli BL21-Star (DE3) and grown up in complex media. Five microliters of the cultures were plated on minimal media containing increasing concentrations of Glufosinate and incubated at 37° C. for 48 hours.

Wildtype corn = assay: Leaf paint with glufosinate in corn; assay type: in vivo; conditions: for % Injury: 2 WAT
Procedure: T0 DSM-2 (v2) plants were painted with a rundown of glufosinate herbicide. Four siblings from each of 15 T0 events were tested, and 4 leaves on each individual plant received a rundown of glufosinate at approximately V8 stage. Rundown treatments were randomized for each rate allowing for variation of treatment location on individual leaves. For corn, 0.25% v/v glufosinate is the minimum effective dose to distinguish sensitive plants from ones with meaningful levels of resistance. Elevated rates were also applied to determine relative levels of resistance (0.5%, 1.0%, and 2.0% v/v). Glufosinate treatments were applied using cotton tipped applicators to a treatment area of approximately 2.5 cm in diameter.
Table 11 compares the response of DSM-2 (v2) and control genes to impart glufosinate resistance to corn T0 transformants. Response is presented in terms of % visual injury 2 WAT. […] Since each T0 is an independent transformation event, one can expect significant variation of individual T0 responses within a given rate. An arithmetic mean and standard deviation is presented for each treatment. Untransformed wildtype corn served as a glufosinate sensitive control. The DSM-2 (v2) gene imparted herbicide resistance to individual T0 corn plants. Within a given treatment, the level of plant response varied greatly and can be attributed to the fact each plant represents an independent transformation event.

CP(=O)(O)CCC(N)C(=O)O (stereo not shown) [glufosinate]
bacterial growth on minimal media ([1]; 250 μg/ml BASTA): −− | bacterial growth on minimal media ([1]; 500 μg/ml BASTA): −− | bacterial growth on minimal media ([1]; 1000 μg/ml BASTA): −− | bacterial growth on minimal media ([1]; 2000 μg/ml BASTA): −− | bacterial growth on minimal media ([1]; 4000 μg/ml BASTA): −− | bacterial growth on minimal media ([2]; 250 μg/ml BASTA): +++ | bacterial growth on minimal media ([2]; 500 μg/ml BASTA): +++ | bacterial growth on minimal media ([2]; 1000 μg/ml BASTA): +++ | bacterial growth on minimal media ([2]; 2000 μg/ml BASTA): +++ | bacterial growth on minimal media ([2]; 4000 μg/ml BASTA): +++ | concentration in minimal media at which expression of DSM-2 complemented resistance ([2]; minimal media): 400 µg/mL | bacterial growth on minimal media ([3]; 250 μg/ml BASTA): ++++ | bacterial growth on minimal media ([3]; 500 μg/ml BASTA): +++ | bacterial growth on minimal media ([3]; 1000 μg/ml BASTA): +++ | bacterial growth on minimal media ([3]; 2000 μg/ml BASTA): ++ | bacterial growth on minimal media ([3]; 4000 μg/ml BASTA): ++ | concentration in minimal media to which promoter-driven DSM-2 provided resistance ([3]; At Ubi10 promoter, minimal media): 200 µg/mL | % Injury (Wildtype corn; 0.25% v/v glufosinate leaf paint): 33% | % Injury (Wildtype corn; 0.5% v/v glufosinate leaf paint): 50% | % Injury (Wildtype corn; 1% v/v glufosinate leaf paint): 84% | % Injury (Wildtype corn; 2% v/v glufosinate leaf paint): 90% | minimum effective dose to distinguish sensitive plants from ones with meaningful levels of resistance (Wildtype corn; corn, leaf paint): 0.25 % v/v
